Source: article PMC3152585 (Dental materials : official publication of the Academy of …, 2011)
Converted amounts (≈) assume the structure as drawn. “And” between values parts separate entries of the source, which are not always exact repeats. Equal entries are not always repeated. Marks after values point to notes of the source that are not given here.

Assays:
[1] = system: matrix-bound endogenous MMPs of dentin; experiment: Loss of dry mass of demineralized dentin beams over 30 days; assay type: biochemical, human; details: for Loss of dry mass (%): mean ± SEM, n=10, buffer control -21.02; for % Inhibition (loss of dry mass): vs buffer control
[2] = target: recombinant human MMP-9 (rhMMP-9) (Homo sapiens, UniProt P14780); experiment: Sensolyte Generic MMP colorimetric assay with soluble rhMMP-9; details: for IC50 (moles/L) for rhMMP-9: from regression of percent inhibition vs alcohol concentration; for IC50 (moles/L) for rhMMP-9 / % Inhibition of soluble rhMMP-9: mean ± SEM, n=5; for % Inhibition of soluble rhMMP-9: alcohol 4.28 M
[3] = system: matrix-bound endogenous MMPs of dentin; experiment: Solubilization of collagen peptides; assay type: biochemical, human; details: 30 days, vs buffer control
MMP-2 = details: 5 wt% monomeric HEMA, PAGE gels; cited from earlier work
physchem = details: aqueous buffer
[4] = read-out: % Inhibition of soluble rhMMP-9

Chain of recombinant human MMP-9 (rhMMP-9) (P14780 107-707 limits assumed): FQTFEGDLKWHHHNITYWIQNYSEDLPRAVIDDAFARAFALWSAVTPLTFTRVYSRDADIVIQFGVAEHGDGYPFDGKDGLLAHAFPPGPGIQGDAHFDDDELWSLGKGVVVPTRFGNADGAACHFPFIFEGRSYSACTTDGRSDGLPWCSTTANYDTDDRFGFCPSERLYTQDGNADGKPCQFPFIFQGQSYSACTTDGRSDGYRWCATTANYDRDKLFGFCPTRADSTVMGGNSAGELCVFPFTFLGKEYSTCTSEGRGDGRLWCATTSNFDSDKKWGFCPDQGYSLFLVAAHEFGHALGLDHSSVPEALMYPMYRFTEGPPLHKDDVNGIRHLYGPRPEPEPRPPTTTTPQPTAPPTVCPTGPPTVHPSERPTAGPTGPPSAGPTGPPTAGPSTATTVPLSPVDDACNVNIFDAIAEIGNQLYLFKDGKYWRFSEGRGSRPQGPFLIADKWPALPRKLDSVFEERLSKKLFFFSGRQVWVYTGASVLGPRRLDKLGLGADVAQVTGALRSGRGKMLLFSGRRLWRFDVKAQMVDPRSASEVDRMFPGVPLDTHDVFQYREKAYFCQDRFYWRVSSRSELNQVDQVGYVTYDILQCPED

OCCCO [1,3-propanediol]
Loss of dry mass (%) ([1]; alcohol 4.28 M): -3.22 ± 0.31% (10)^A

CCCCCCO [1-hexanol]
inhibition at 170000 µM [2, 4]: 28.3 ± 0.4%

CCCCCCCCO [1-octanol]
IC50 (moles/L) for rhMMP-9 [2]: 0.3 ± 0.22%^b moles/L | inhibition at 170000 µM [2, 4]: 25.4 ± 1.21%

CCCCCO [1-pentanol]
inhibition at 860000 µM [2, 4]: 28.5 ± 0.54%

CCCO [1-propanol]
% Inhibition (solubilization of HYP) ([3]; alcohol 4.28 M): 78.2% | % Inhibition (loss of dry mass) ([1]; alcohol 4.28 M): 80.2% | % Inhibition of soluble rhMMP-9 [2]: 79.7 ± 0.18%^F | IC50 (moles/L) for rhMMP-9 [2]: 2.7 moles/L and 2.7 ± 0.13%^d moles/L

CCC(C)O (stereo not drawn) [2-butanol]
% Inhibition (solubilization of HYP) ([3]; alcohol […]): 82.9% | % Inhibition (loss of dry mass) ([1]; alcohol […]): 80.2% | % Inhibition of soluble rhMMP-9 [2]: 78.7 ± 0.94%^F | IC50 (moles/L) for rhMMP-9 [2]: 0.5 ± 0.04%^b moles/L

CCCCCC(C)O (stereo not drawn) [2-heptanol]
IC50 (moles/L) for rhMMP-9 [2]: 3.0 ± 0.18%^d moles/L | inhibition at 170000 µM [2, 4]: 13.7 ± 2.33%

CCCCC(C)O (stereo not drawn) [2-hexanol]
IC50 (moles/L) for rhMMP-9 [2]: 1.6 ± 0.09%^c moles/L | inhibition at 170000 µM [2, 4]: 13.2 ± 0.67%

CCCCCCC(C)O (stereo not drawn) [2-octanol]
IC50 (moles/L) for rhMMP-9 [2]: 2.7 ± 0.18%^d moles/L | inhibition at 170000 µM [2, 4]: 21.5 ± 0.63%

CC(C)O [2-propanol]
% Inhibition of soluble rhMMP-9 [2]: 52.7 ± 0.18%^D | IC50 (moles/L) for rhMMP-9 [2]: 4.4 ± 0.13%^e moles/L

CCCCC(O)CC (stereo not drawn) [3-heptanol]
IC50 (moles/L) for rhMMP-9 [2]: 0.5 ± 0.04%^b moles/L | inhibition at 170000 µM [2, 4]: 17.1 ± 0.54%

CCCC(O)CC (stereo not drawn) [3-hexanol]
IC50 (moles/L) for rhMMP-9 [2]: 0.4 ± 0.04%^b moles/L | inhibition at 170000 µM [2, 4]: 35.1 ± 1.16%

CCCCC(O)CCC (stereo not drawn) [4-octanol]
IC50 (moles/L) for rhMMP-9 [2]: 1.1 ± 0.04%^c moles/L | inhibition at 170000 µM [2, 4]: 17.7 ± 0.27%

C=C(C)C(=O)OCCO [HEMA, 2-hydroxyethylmethacrylate]
% Inhibition (solubilization of HYP) ([3]; 0.86 M): 88.1% | % Inhibition (solubilization of HYP) ([3]; […]): 83.6% | % Inhibition (solubilization of HYP) ([3]; alcohol 4.28 M): 85.6% | Inhibition of MMP-2 (MMP-2): about 80% | % Inhibition (loss of dry mass) ([1]; 0.86 M): 80.7% | % Inhibition (loss of dry mass) ([1]; […]): 79.1% | % Inhibition (loss of dry mass) ([1]; alcohol 4.28 M): 80.8% | solubility (physchem): 4280 mM (≈ 557 mg/mL) | IC50 [2]: 100 ± 90 mM | Inhibition of rhMMP-9 ([2]; 2.2 vol% HEMA, data not shown): 98% | Inhibition of MMP-9 relative to the same concentration of ethanol ([2]; compared to ethanol): nineteen times more

CCO [ethanol]
% Inhibition of soluble rhMMP-9 [2]: 14.3 ± 2.06%^A | IC50 (moles/L) for rhMMP-9 [2]: 19.6 ± 0.36%^a moles/L

CC(C)(C)O [tert-butanol]
Loss of dry mass (%) ([1]; alcohol 4.28 M): -3.52 ± 0.28% (10)^A | % Inhibition (loss of dry mass) ([1]; alcohol 4.28 M): 83.3%
